Reference: patent US20110077232A1, “COMPOSITIONS COMPRISING ATORVASTATIN 4-(NITROOXY) BUTYL ESTER AND A HYPOLIPIDEMIC DRUG” (Nicox S.A., priority 2008, published 2011)

Columns and labels:
female APOE*3Leiden mice [1] = assay: Plasma ALT levels (liver function), Method 1; assay type: in vivo; details: for ALT: pooled plasma
Procedure: Alanine transaminase (ALT), as measure for liver function, was measured in pooled samples using the spectrophotometric assay of the Boehringer Reflotron system.

female APOE*3Leiden mice [2] = assay: Total plasma cholesterol, Method 1; assay type: in vivo; set-up: decreased plasma cholesterol levels (vs control): concentration or dose not given beside the values; details: for Cholesterol: means ± SD
Procedure: Total plasma cholesterol was determined using kit “Chol R1” is from Roche.

female APOE*3Leiden mice [3] = assay: Plasma triglycerides, Method 1; assay type: in vivo; details: for Triglycerides: means ± SD
Procedure: (§1) At the end of each treatment period blood was collected for the indicated lipid and inflammation parameters and at sacrifice livers and plasma/serum were collected.
Triglycerides level was determined using kit “Triglycerides GPO-PAP” from Roche.

female APOE*3Leiden mice [4] = details: t = 8 weeks; means ± SD, n ≧ 9 mice per group
Procedure: as §1
P-Selectin, adhesion molecule as inflammation marker, was determined using commercially available Elisa kit.

female APOE*3Leiden mice [5] = assay: Number of lesions in the aortic root, Method 2; assay type: in vivo; details: for influence on number of lesions as compared to the control group: 12 weeks, result in words; for Lesion number per cross section: t = 12 weeks, NO-atorvastatin 13.0 mg/kg, ezetimibe 0.1 then 0.3 mg/kg, means±SD
Procedure: (§2) Fifty-six female APOE*3Leiden mice (age 11-13 weeks, body weight 20-25 gram) were put on a semi-synthetic Western-type diet for 4 weeks and were subsequently treated with or without NO-atorvastatin (13.0 mg/kg b.w. or 0.0108% w/w), ezetimibe (0.1 mg/kg b.w. or 0.000083% w/w until week 6 and 0.3 mg/kg b.w. or 0.000249% w/w from week 6-12) and a combination of NO-atorvastatin with ezetimibe for 12 weeks. At time point t=0, t=4, t=8 and t=12 blood was collected for the measurement of the indicated lipid and inflammation parameters and at sacrifice serum, heart, thoracic aorta and liver were collected. The number of lesions and the number of undiseased segments in the aortic root were measured.
The number of lesions per cross section is presented as absolute values (means±SD).

female APOE*3Leiden mice [6] = assay: Undiseased segments in the aortic root, Method 2; assay type: in vivo; details: 12 weeks; for Undiseased segments (% of total): aortic root, n=12 per group, means±SD
Procedure: as §2
The number of undiseased segments in the aortic root was counted individually (n=12 per group) and calculated as percentage of all quantified segments. Values are percentages (means±SD).

female APOE*3Leiden mice [7] = assay: Progression of atherosclerosis (overall, lesion area), Method 2; assay type: in vivo; details: 12 weeks; result in words
Procedure: as §2

[8] = t = 0 (before treatment), n ≧ 9 mice per group
[9] = t = 4 weeks, NO-atorvastatin 4.3 mg/kg, ezetimibe 0.1 mg/kg, fenofibrate 1 mg/kg in diet
[10] = t = 8 weeks, NO-atorvastatin 13 mg/kg, ezetimibe 0.1 mg/kg, fenofibrate 3 mg/kg from week 4
[11] = t = 4 weeks, NO-atorvastatin 4.3 mg/kg, ezetimibe 0.1 mg/kg, fenofibrate 1 mg/kg
[12] = t = 4 weeks, NO-atorvastatin 4.3 mg/kg, fenofibrate 1 mg/kg
[13] = t = 8 weeks, NO-atorvastatin 13 mg/kg, fenofibrate 3 mg/kg from week 4

| SMILES | ALT (female APOE*3Leiden mice [1]; [8]) | ALT (female APOE*3Leiden mice [1]; [9]) | ALT (female APOE*3Leiden mice [1]; [10]) | decreased plasma cholesterol levels (vs control) (female APOE*3Leiden mice [2]; after 4 weeks of treatment) | decreased plasma cholesterol levels (vs control) (female APOE*3Leiden mice [2]; after 8 weeks of treatment) | Cholesterol (female APOE*3Leiden mice [2]; [8]) | Cholesterol (female APOE*3Leiden mice [2]; [11]) | Cholesterol (female APOE*3Leiden mice [2]; [10]) | Triglycerides (female APOE*3Leiden mice [3]; [8]) | Triglycerides (female APOE*3Leiden mice [3]; [12]) | Triglycerides (female APOE*3Leiden mice [3]; [13]) | P-Selectin (female APOE*3Leiden mice [4]) | influence on number of lesions as compared to the control group (female APOE*3Leiden mice [5]) | Lesion number per cross section (female APOE*3Leiden mice [5]) | Undiseased segments (% of total) (female APOE*3Leiden mice [6]) | effect on progression of atherosclerosis (female APOE*3Leiden mice [7]) | increased ALT levels as compared to the control mice (female APOE*3Leiden mice [1]; t=4 weeks) | increased ALT levels as compared to the control mice (female APOE*3Leiden mice [1]; t=8 weeks) | decrease of plasma triglycerides compared to the control group (female APOE*3Leiden mice [3]; t=8 weeks) | effect on number of undiseased segments (female APOE*3Leiden mice [6]; result in words) |
| --- | --- | --- | --- | --- | --- | --- | --- | --- | --- | --- | --- | --- | --- | --- | --- | --- | --- | --- | --- | --- |
| CC(C)c1c(C(=O)Nc2ccccc2)c(-c2ccccc2)c(-c2ccc(F)cc2)n1CC[C@@H](O)C[C@@H](O)CC(=O)OCCCCO[N+](=O)[O-] [NO-atorvastatin, atorvastatin 4-(nitrooxy) butyl ester] | 120 U/L | 114 U/L | 91 U/L | −21% | −34% | 18.6 ± 2.8 mmol/L | 17.7 ± 2.5 mmol/L | 15.2 ± 3.0 mmol/L | 2.7 ± 0.3 mmol/L | 3.2 ± 0.7 mmol/L | 2.7 ± 0.5 mmol/L | 190 ± 23 ng/mL | did not influence the number of lesions | 3.2 ± 0.7 | 26.4 ± 15.0 % of total | reduced atherosclerosis in lesion area | – | – | – | – |
| CC(C)OC(=O)C(C)(C)Oc1ccc(C(=O)c2ccc(Cl)cc2)cc1 [Fenofibrate, fenofibrate] | – | – | – | no effect | −28% | – | – | 16.5 ± 2.2 mmol/L | 2.6 ± 0.7 mmol/L | 2.2 ± 0.5 mmol/L | 1.6 ± 0.5 mmol/L | – | – | – | – | – | +43% | +60% | 41% | – |
| O=C1[C@H](CC[C@H](O)c2ccc(F)cc2)[C@@H](c2ccc(O)cc2)N1c1ccc(F)cc1 [Ezetimibe, ezetimibe] | 120 U/L | 92 U/L | 81 U/L | −25% | −35% | 18.6 ± 2.6 mmol/L | 16.8 ± 2.4 mmol/L | 14.9 ± 3.2 mmol/L | – | – | – | – | did not influence the number of lesions | 3.5 ± 1.0 | 16.0 ± 14.8 % of total | did not affect the progression of atherosclerosis | – | – | – | did not affect the number of undiseased segments |
